The conditions of the data set: amide bond, 4 steps.

The results in this text go back to patent US5616684A, “Cyclic peptides and use thereof” (priority 1991, dated 1997).

The structures appear in SMILES notation. Like-named read-outs stand apart in the source and are kept apart here.

`CC(C)C[C@@H]1NC(=O)[C@@H](CC(C)C)NC(=O)[C@H](CC(=O)O)NC(=O)[C@H](CC(=O)NCc2ccccc2)NC(=O)[C@@H](CC(=O)O)NC(=O)[C@@H](Cc2c[nH]c3ccccc23)NC1=O` [cyclo[-D-Asp-Asn(CH2 Ph)-Asp-D-Leu-Leu-D-Trp-]]: the ring closure, yield of all isomers (from CC(C)C[C@H](NC(=O)[C@@H](CC(C)C)NC(=O)[C@H](CC(=O)OCc1ccccc1)NC(=O)[C@H](CC(=O)NCc1ccccc1)NC(=O)[C@@H](CC(=O)OCc1ccccc1)NC(=O)[C@@H](Cc1c[nH]c2ccccc12)NC(=O)OC(C)(C)C)C(=O)O, HONB/DCC (ONB active ester), TEA, DMF, 3.46 mM, 16.0 h) was 23.8%.
In turn, `CC(C)C[C@@H]1NC(=O)[C@@H](CC(C)C)NC(=O)[C@H](C)NC(=O)[C@H](CC(=O)O)NC(=O)[C@@H](CC(=O)O)NC(=O)[C@@H](Cc2c[nH]c3ccccc23)NC1=O` [cyclo[-D-Asp-Asp-Ala-D-Leu-Leu-D-Trp-]] showed a ring closure, yield of all isomers (from CC(C)C[C@H](NC(=O)[C@@H](CC(C)C)NC(=O)[C@H](C)NC(=O)[C@H](CC(=O)OCc1ccccc1)NC(=O)[C@@H](CC(=O)OCc1ccccc1)NC(=O)[C@@H](Cc1c[nH]c2ccccc12)NC(=O)OC(C)(C)C)C(=O)O, HONB/DCC (active ester), TEA, DMF, 5.04 mM, 16.0 h) of 17.8%.
Take `CC(C)C[C@@H]1NC(=O)[C@@H](CC(C)C)NC(=O)[C@H](C)NC(=O)[C@H](CCC(=O)O)NC(=O)[C@@H](CC(=O)O)NC(=O)[C@@H](Cc2c[nH]c3ccccc23)NC1=O` [cyclo[-D-Asp-Glu-Ala-D-Leu-Leu-D-Trp-]]: the ring closure, yield of all isomers (from CC(C)C[C@H](NC(=O)[C@@H](CC(C)C)NC(=O)[C@H](C)NC(=O)[C@H](CCC(=O)OCc1ccccc1)NC(=O)[C@@H](CC(=O)OCc1ccccc1)NC(=O)[C@@H](Cc1c[nH]c2ccccc12)NC(=O)OC(C)(C)C)C(=O)O, HONB/DCC (active ester), TEA, DMF, 4.97 mM, 16.0 h) was 20.6%.
`CC(C)C[C@@H]1NC(=O)[C@@H](CC(C)C)NC(=O)[C@H](C)NC(=O)CNC(=O)[C@@H](CC(=O)O)NC(=O)[C@@H](Cc2c[nH]c3ccccc23)NC1=O` [cyclo[-D-Asp-Gly-Ala-D-Leu-Leu-D-Trp-]] displayed a ring closure, yield of all isomers (from CC(C)C[C@H](NC(=O)[C@@H](CC(C)C)NC(=O)[C@H](C)NC(=O)CNC(=O)[C@@H](CC(=O)OCc1ccccc1)NC(=O)[C@@H](Cc1c[nH]c2ccccc12)NC(=O)OC(C)(C)C)C(=O)O, HONB/DCC (active ester), TEA, DMF, 5.9 mM, 16.0 h) of 19.2%.
With `CC(C)C[C@@H]1NC(=O)[C@@H](CC(C)C)NC(=O)[C@H](CC(=O)O)NC(=O)[C@H](CCCNC(=O)Cc2c[nH]c3ccccc23)NC(=O)[C@@H](CC(=O)O)NC(=O)[C@@H](Cc2c[nH]c3ccccc23)NC1=O` [cyclo[-D-Asp-Orn(COCH2 -Ind)-Asp-D-Leu-Leu-D-Trp-]], the ring closure, yield of all isomers (from CC(C)C[C@H](NC(=O)[C@@H](CC(C)C)NC(=O)[C@H](CC(=O)OCc1ccccc1)NC(=O)[C@H](CCCNC(=O)Cc1c[nH]c2ccccc12)NC(=O)OC(C)(C)C)C(=O)N[C@H](Cc1c[nH]c2ccccc12)C(=O)N[C@H](CC(=O)OCc1ccccc1)C(=O)O) worked out at 12.5%.
In turn, `CC(C)C[C@@H]1NC(=O)[C@@H](CC(C)C)NC(=O)[C@H](CC(=O)O)NC(=O)[C@H](CCCNC(=O)CCc2ccccc2)NC(=O)[C@@H](CC(=O)O)NC(=O)[C@@H](Cc2c[nH]c3ccccc23)NC1=O` [cyclo[-D-Asp-Orn(COCH2 CH2 Ph)-Asp-D-Leu-Leu-D-Trp-]] displayed a ring closure, yield of all isomers (from CC(C)C[C@H](NC(=O)[C@@H](CC(C)C)NC(=O)[C@H](CC(=O)OCc1ccccc1)NC(=O)[C@H](CCCNC(=O)CCc1ccccc1)NC(=O)OC(C)(C)C)C(=O)N[C@H](Cc1c[nH]c2ccccc12)C(=O)N[C@H](CC(=O)OCc1ccccc1)C(=O)O, HONB/DCC (active ester), TEA, DMF, 5.05 mM, 16.0 h) of 40.9%.
`CC(C)C[C@@H]1NC(=O)[C@@H](CC(C)C)NC(=O)[C@H](CC(=O)O)NC(=O)[C@H](CCCNC(=O)Cc2ccccc2)NC(=O)[C@@H](CC(=O)O)NC(=O)[C@@H](Cc2c[nH]c3ccccc23)NC1=O` [cyclo[-D-Asp-Orn(COCH2 Ph)-Asp-D-Leu-Leu-D-Trp-]] displayed a ring closure, yield of all isomers (from CC(C)C[C@H](NC(=O)[C@@H](CC(C)C)NC(=O)[C@H](CC(=O)OCc1ccccc1)NC(=O)[C@H](CCCNC(=O)Cc1ccccc1)NC(=O)OC(C)(C)C)C(=O)N[C@H](Cc1c[nH]c2ccccc12)C(=O)N[C@H](CC(=O)OCc1ccccc1)C(=O)O, HONB/DCC (active ester), TEA, DMF, 4.66 mM) of 2.9%.
In turn, `CC(C)C[C@@H]1NC(=O)[C@@H](CC(C)C)NC(=O)[C@H](CC(=O)O)NC(=O)[C@H](CCCNC(=O)c2ccccc2)NC(=O)[C@@H](CC(=O)O)NC(=O)[C@@H](Cc2c[nH]c3ccccc23)NC1=O` [cyclo[-D-Asp-Orn(COPh)-Asp-D-Leu-Leu-D-Trp-]] had a ring closure, yield of all isomers (from CC(C)C[C@H](NC(=O)[C@@H](CC(C)C)NC(=O)[C@H](CC(=O)OCc1ccccc1)NC(=O)[C@H](CCCNC(=O)c1ccccc1)NC(=O)OC(C)(C)C)C(=O)N[C@H](Cc1c[nH]c2ccccc12)C(=O)N[C@H](CC(=O)OCc1ccccc1)C(=O)O, HONB/DCC (active ester), TEA, DMF, 5.03 mM) of 48.1%.
Turning to `CC(C)C[C@@H]1NC(=O)[C@@H](CC(C)C)NC(=O)[C@H](CC(=O)O)NC(=O)[C@@H]2CCCN2C(=O)[C@@H](CC(=O)O)NC(=O)[C@@H](Cc2c[nH]c3ccccc23)NC1=O` [cyclo[-D-Asp-Pro-Asp-D-Leu-Leu-D-Trp-]], the ring closure, yield of all isomers (from CC(C)C[C@H](NC(=O)[C@@H](CC(C)C)NC(=O)[C@H](CC(=O)OCc1ccccc1)NC(=O)[C@@H]1CCCN1C(=O)[C@@H](CC(=O)OCc1ccccc1)NC(=O)[C@@H](Cc1c[nH]c2ccccc12)NC(=O)OC(C)(C)C)C(=O)O, HONB/DCC (ONB active ester), TEA, DMF, 5.1 mM, 16.0 h) stood at 47.4%.
On to `CC(C)C[C@@H]1NC(=O)C2(CCC2)NC(=O)[C@H](CC(=O)O)NC(=O)[C@H](Cc2c[nH]c3ccccc23)NC(=O)[C@@H](CC(=O)O)NC(=O)[C@@H](Cc2c[nH]c3ccccc23)NC1=O` [cyclo[-D-Asp-Trp-Asp-Acbu-Leu-D-Trp-]], for which the ring closure, yield of all isomers (from CC(C)C[C@H](NC(=O)C1(NC(=O)OC(C)(C)C)CCC1)C(=O)N[C@H](Cc1c[nH]c2ccccc12)C(=O)N[C@H](CC(=O)OCc1ccccc1)C(=O)N[C@@H](Cc1c[nH]c2ccccc12)C(=O)N[C@@H](CC(=O)OCc1ccccc1)C(=O)O, HONB/DCC (active ester), TEA, DMF, 4.95 mM) is 10.4%.
Take `CC(C)C[C@@H]1NC(=O)[C@@H](CC(C)C)NC(=O)[C@H](CC(=O)O)NC(=O)[C@H](Cc2c[nH]c3ccccc23)NC(=O)[C@@H](CC(=O)O)NC(=O)[C@@H](Cc2c[nH]c3ccccc23)NC1=O` [cyclo[-D-Asp-Trp-Asp-D-Leu-Leu-D-Trp-]]: the ring closure, yield of all isomers (from CC(C)C[C@H](NC(=O)[C@@H](CC(C)C)NC(=O)[C@H](CC(=O)OCc1ccccc1)NC(=O)[C@H](Cc1c[nH]c2ccccc12)NC(=O)[C@@H](CC(=O)OCc1ccccc1)NC(=O)[C@@H](Cc1c[nH]c2ccccc12)NC(=O)OC(C)(C)C)C(=O)O, HONB/DCC (ONB active ester), TEA, DMF, 4.97 mM, 16.0 h) came out at 52.9%.
As to `CC(C)C[C@@H]1NC(=O)[C@@H](c2cccs2)NC(=O)[C@H](CC(=O)O)NC(=O)[C@H](Cc2c[nH]c3ccccc23)NC(=O)[C@@H](CC(=O)O)NC(=O)[C@@H](Cc2c[nH]c3ccccc23)NC1=O` [cyclo[-D-Asp-Trp-Asp-D-Thg(2)-Leu-D-Trp-]], the ring closure, yield of all isomers (from CC(C)C[C@H](NC(=O)[C@H](NC(=O)OC(C)(C)C)c1cccs1)C(=O)N[C@H](Cc1c[nH]c2ccccc12)C(=O)N[C@H](CC(=O)OCc1ccccc1)C(=O)N[C@@H](Cc1c[nH]c2ccccc12)C(=O)N[C@@H](CC(=O)OCc1ccccc1)C(=O)O, HONB/DCC (active ester), TEA, DMF, 5.06 mM) worked out at 4.6%.
Compound `CC(C)C[C@@H]1NC(=O)[C@@H](C(C)(C)C)NC(=O)[C@H](CC(=O)O)NC(=O)[C@H](Cc2c[nH]c3ccccc23)NC(=O)[C@@H](CC(=O)O)NC(=O)[C@@H](Cc2c[nH]c3ccccc23)NC1=O` [cyclo[-D-Asp-Trp-Asp-D-tLeu-Leu-D-Trp-]] showed a ring closure, yield of all isomers (from CC(C)C[C@H](NC(=O)[C@H](NC(=O)OC(C)(C)C)C(C)(C)C)C(=O)N[C@H](Cc1c[nH]c2ccccc12)C(=O)N[C@H](CC(=O)OCc1ccccc1)C(=O)N[C@@H](Cc1c[nH]c2ccccc12)C(=O)N[C@@H](CC(=O)OCc1ccccc1)C(=O)O, HONB/DCC (active ester), then TEA, DMF, 5.03 mM, 16.0 h) of 42.8%.
`CC(C)C[C@@H]1NC(=O)[C@@H](CC(C)(C)C)NC(=O)[C@H](CC(=O)O)NC(=O)[C@H](Cc2c[nH]c3ccccc23)NC(=O)[C@@H](CC(=O)O)NC(=O)[C@@H](Cc2c[nH]c3ccccc23)NC1=O` [cyclo[-D-Asp-Trp-Asp-D-γMeLeu-Leu-D-Trp-]] returned a ring closure, yield of all isomers (from CC(C)C[C@H](NC(=O)[C@@H](CC(C)(C)C)NC(=O)OC(C)(C)C)C(=O)N[C@H](Cc1c[nH]c2ccccc12)C(=O)N[C@H](CC(=O)OCc1ccccc1)C(=O)N[C@@H](Cc1c[nH]c2ccccc12)C(=O)N[C@@H](CC(=O)OCc1ccccc1)C(=O)O, HONB/DCC (active ester), then TEA, DMF, 4.97 mM, 16.0 h) of 51.5%.
